{"source": "patent US20030232101A1", "about": "“Topical formulations of resorcinols and cannibinoids and methods of use” (Immugen Pharmaceuticals, Inc., priority 2002, published 2003)", "key": {"[1]": {"tested_on": "HIV-1 (96USHIPS7 strain)", "assay": "HIV attachment assay in PBMCs (cell-associated p24)", "type": "cell-based", "conditions": "time 0 h", "description": "ELISA kits were purchased from Coulter Electronics. The assay was performed according to the manufacturer's instructions. Control curves were generated in each assay to accurately quantitate the amount of p24 antigen in each sample. For experiments using cell lysates. Fifty thousand (5×10^4) viable cells were lysed in Coulter ELISA buffer and subjected to 1 round of freeze/thawed to liberate trapped p24 and p24 detected per manufacturers instructions. HIV capsid protein (p24) was quantitated spectrophotometrically at 450 nm using a Molecular Devices Vmax plate reader using a standard curve. Final concentrations were calculated from the optical density values using the Molecular Devices Soft Max software package.\nThe attachment assay with PBMCs was performed as follows. Briefly, 1×10^6 PHA/IL-2 PBMCs were incubated for 0, 2, 4 and 24 hours with IMG compounds and cannabidiol in polypropylene tubes. A pre-titered amount of HIV-1 (96USHIPS7 strain, obtained from the AIDS Research and Reference Reagent Program ) was added in the presence of compound and incubated for 3 h at 37° C. After incubation the cultures were washed 3 times (400×g, 10 min, 4° C.) with media (1:25,000 dilution of input p24), the cell pellets lysed with p24 lysing buffer (Coulter) and p24 content determined by ELISA.\nPBMCs pretreated with compounds for 0, 2, 4, and 24 were incubated with cell-free HIV-1 for 3 h and the excess unbound HIV removed. The assessed the amount of HIV bound to the cell was then assessed by measuring cell-associated p24 content of total cell lysates."}, "[2]": {"tested_on": "IIIB strain of HIV-1", "assay": "Virus attachment assay, HeLa CD4 LTR β-gal cells (Experimental Example 2)", "type": "cell-based", "conditions": "virus adsorption interval 1 to 2 h", "description": "This assay detects compounds that block virus attachment using HeLa CD4 LTR β-gal cells. HeLa CD4 LTR β-gal cells were cultured with selection antibiotics. Twenty-four h prior to initiation of the assay, the cells were trypsinized, counted and plated in a 0.2 cm well in media without selection antibiotics. At 24 h media is removed and compound in media placed on the cells and incubated for 15 min at 37° C. A known titer of the IIIB strain of HIV-1 was then added to the wells and the incubation continued for 1 to 2 h. At the end of the incubation the wells were washed 2 times with media and the culture continued for 40 to 48 h. At termination of the assay, media is removed and β-galactosidase enzyme expression determined by chemiluminescence per manufacturer's instructions (Tropix Gal-screen, Bedford Mass.). Compound toxicity is monitored on a sister plate by XTT or MTS dye reduction. All determinations are performed in triplicate with serial_Log10 dilution of the test materials."}, "[3]": {"tested_on": "peripheral blood mononuclear cells (PBMCs)", "assay": "PBMC cell viability in time of addition assay (MTS / Trypan Blue)", "type": "cell-based, Human", "conditions": "read-out: TC50 (the source's name)", "description": "(§1) Human peripheral blood mononuclear cells (PBMCs) from a minimum of 2 donors, that have been blasted with PHA and IL-2, were counted, viability determined by Trypan Blue dye exclusion and mixed in equal ratios. Pooled donors were used to minimize the variability observed between individual donors which results from quantitative and qualitative differences in HIV infection and overall response to the PHA and IL-2 of primary lymphocyte populations. The cells were resuspended at 1×10^6 cells /mL in RPMI 1640 without phenol red supplemented with 15% Fetal Bovine Serum (heat inactivated), 2 mM L-glutamine, 100 U/mL penicillin, 100 μg/mL streptomycin, 10 μg/mL gentamycin and IL-2 (20 U/mL, R&D Systems, Minneapolis, Minn.). Fifty microliters of cells were then distributed to the inner 60 wells of a 96 well round bottom microtiter culture plate in a standard format developed by the Infectious Disease Research department of Southern Research Institute. Each plate contains cell control wells (cells only), virus control wells (cells plus virus), and experimental wells (drug plus cells plus virus). Alternatively, cells were cultured in T25 cm^2 or T75 cm^2 tissue culture flasks at a starting density of 1×10^6 cells per ml. Serially diluted compounds were added to the microtiter plate or tissue culture flask followed by the appropriate pre-titered strain of HIV-1. For virus replication inhibition experiments the HIV-1 strain RoJo was used. This is a low passage presumable subtype B pediatric isolate with a syncytium inducing (SI) phenotype in MT-2 cells isolated by Southern Research Institute personnel. All samples were assayed in triplicate where possible with an accompanying determination of compound toxicity. The final volume per well in the microtiter plates was 200 μL. The final volume in the tissue culture flask varied depending upon experimental design and flask size. Assays were incubated for 6 days in a humidified atmosphere at 37° C., 5% CO^2, after which supernatants were collected, for analysis of RT activity and cell viability by MTS dye reduction. Culture were also examined microscopically, any abnormalities noted, and in the case of tissue culture flasks cell counts and viability determined by Trypan Blue Dye exclusion.\n(§2) Time of addition assays were performed with PBMCs in two ways. For both assays, PBMCs were isolated and cultured under the conditions as described above. Time of addition assays were carried out in either a tissue culture flask format (T-75 cm^2) or in microtiter wells. In both cases due to the lack of plastic adherence and heterogeneity of the PBMC population for susceptibility to infection, it was not possible to use complete removal of virus following a timed adsorption to synchronize the infection and limit the assay to a single round of infection. Therefore, serial washing by partial removal of the media was used to reduce the concentration of virus and compound (if required) in the assay. Compound addition in relationship to antiviral activity was either assessed over a short addition interval immediately before or after virus addition or for up to 72 h post infection. For all assays virus replication was assessed at 6 days of culture by determining RT expression in cell-free supernatants. In the tissue culture flask format cells were counted and Trypan Blue Dye exclusion used to monitor compound cytotoxicity. Cell viability in the 96 well microtiter plate format was determined by MTS dye reduction. AZT was used as a positive control.\nAt assay termination the assay plates were stained with the soluble tetrazolium-based dye MTS (CellTiter96® Reagent Promega) to determine cell viability and quantify compound toxicity. MTS is metabolized by the mitochondria enzymes of metabolically active cells to a soluble formazan product, allowing the rapid quantitative analysis cell viability and compound cytotoxicity. […] At termination of the assay 20 μL of MTS reagent was added per well and incubated for 4 h at 37° C. […]"}, "[4]": {"tested_on": "HIV-1 strain RoJo", "assay": "PBMC time of addition assay (RT activity in supernatant at 6 days)", "type": "cell-based", "conditions": "for IC50: read-out: IC50", "description": "as §1, §2\nReverse transcriptase activity was measured in cell-free supernatants. Tritiated thymidine triphosphate (NEN) (TTP) was resuspended in distilled H2O at 5 Ci/mL. Poly rA and oligo dT were prepared as a stock solution which was kept at −20° C. The RT reaction buffer was prepared fresh on a daily basis and consists of 125 μL 1.0 M EGTA, 125 μL dH2O, 110 μL 10% SDS, 50 μL 1.0 M Tris (pH 7.4), 50 μL 1.0 M DTT, and 40 μL 1.0 M MgCl2. […]"}}, "note": "Where two headings read alike, the source gives them in different places.", "data": [{"compound": "Dextran Sulfate [reference compound]", "values": [{"measurement": "% Control", "setting": "[1]; 20 μg/ml", "value": 57.6, "unit": "%"}, {"measurement": "pg p24", "setting": "[1]; 20 μg/ml", "value": 221, "unit": "pg"}, {"measurement": "suppression of virus attachment", "setting": "[1]; 20 μg/ml", "value": 43.4, "unit": "% suppression"}, {"measurement": "suppression of virus attachment", "setting": "[1]; 20 μg/ml, listed as dextran sulfate", "value": 43.4, "unit": "%"}]}, {"compound": "Cc1cn([C@H]2C[C@H](N=[N+]=[N-])[C@@H](CO)O2)c(=O)[nH]c1=O", "note": "[AZT, reference compound]", "values": [{"measurement": "activity in virus attachment assay", "setting": "[2]", "value": "not active"}, {"measurement": "CC50", "setting": "[3]; treatment 6 h post", "value": "> 4000", "unit": "nM"}, {"measurement": "CC50", "setting": "[3]; treatment at infection", "value": "> 4000", "unit": "nM"}, {"measurement": "CC50", "setting": "[3]; treatment −4 h pre", "value": "> 4000", "unit": "nM"}, {"measurement": "enhancement of activity", "setting": "[4]; 4 h preincubation", "value": 4.6, "unit": "fold"}, {"measurement": "IC50", "setting": "[4]; addition prior to infection, pre-treatment 0 h", "value": 1, "unit": "nM"}, {"measurement": "IC50", "setting": "[4]; addition prior to infection, pre-treatment 2 h", "value": 1, "unit": "nM"}, {"measurement": "IC50", "setting": "[4]; addition prior to infection, pre-treatment 4 h", "value": 1, "unit": "nM"}, {"measurement": "IC50", "setting": "[4]; addition prior to infection, pre-treatment 24 h", "value": 3, "unit": "nM"}, {"measurement": "IC50", "setting": "[4]; treatment 6 h post", "value": 4.6, "unit": "nM"}, {"measurement": "IC50", "setting": "[4]; treatment at infection", "value": 3.7, "unit": "nM"}, {"measurement": "IC50", "setting": "[4]; treatment −4 h pre", "value": 0.8, "unit": "nM"}]}, {"compound": "Cc1ccnc2c1NC(=O)c1cccnc1N2C1CC1", "note": "[Nevirapine, reference compound]", "values": [{"measurement": "% Control", "setting": "[1]; 10 μM", "value": 81.2, "unit": "%"}, {"measurement": "pg p24", "setting": "[1]; 10 μM", "value": 311.7, "unit": "pg"}, {"measurement": "suppression of virus attachment", "setting": "[1]; 10 μM", "value": 19, "unit": "% suppression"}, {"measurement": "suppression of virus attachment", "setting": "[1]; 10 μM, listed as nevaripine", "value": 19, "unit": "%"}]}]}
